Earlier results, collected in patent US20230091009A1, “METHOD FOR PROMOTING GROWTH OF GAS-FERMENTED MICROORGANISMS” (HARBIN INSTITUTE OF TECHNOLOGY, SHENZHEN, priority 2021, published 2023).

Details: ambient conditions, even in a supersaturated state

[HH] [hydrogen]
solubility in water: about 0.79 mmol/l
